The text below walks through data of patent publication EP0934940A1, “CYTOKINE PRODUCTION INHIBITORS, TRIAZEPINE COMPOUNDS, AND INTERMEDIATES THEREOF” (Japan Tobacco Inc., priority 1996, dated 1997).

In experiment [1] the test system is IL-6. The experiment in a line: Inhibitory activity on in vivo IL-6 production by LPS stimulation. The following applies: male ICR mice, LPS stimulation i.v., test compound 10 mg/kg p.o. at the same time, blood two hours later, relative to 0.5% CMC-Na group; for inhibition in vivo at 10 mg/kg: Mus musculus, po, 2 h, read-out: Inhibtion (%) of plasma IL-6 production (10 mg/kg, p.o.). As to the method:
Inhibitory activity on in vivo IL-6 production by LPS stimulation
LFS (0.3 mg/kg) was intravenously administered to male ICR mice (6-week-old) fasted for 24 hours. At the same time, the test compound suspended in 0.5% CMC-Na ( carboxymethylcellulose sodium) was orally administered at the dose of 10 mg/kg.
Two hours later, blood was taken from eyegrounds. The blood was centrifuged, and the plasma fraction was diluted and quantitatively assayed for IL-6 in blood by ELISA (Endogen EM-IL6). The inhibitory percentage of the group administered with the test compound was expressed relative to the amount of IL-6 in blood of the cup administered with 0.5% CMC-Na.

The subject of experiment [2] is IL-6. Nature of the experiment: Inhibitory activity on IL-6 production from LPS-stimulated human PBMC (ELISA). The settings on record: 24 h. In kind it is cell-based. As for the experimental part:
(§1) Inhibitory activity on cytokine production from human PBMC (peripheral blood mononuclear cell)
(§2) PBMC fractions were isolated from human blood using a mono-poly resolving medium. The cells (PBMC) were cultured in 5% FCS (fetal calf serum)/RPMI1640 medium. Thereafter, the test compound was added to the final concentration of 0.001-10 µM, and LPS (lipopolysaccharide) was added to the final concentration of 10 µg/ml. After incubatioin for 24 hours, the supernatant was separated and freeze stocked at -80°C.
(§3) On the day of experiment, the supernatant was thawed and the production amount of cytokine was measured by ELISA. IL-6 was assayed using [(h)IL-6] human, ELISA system (Amersham); TNF-α was assayed using [(h)TNF-α] human, ELISA system (Amersham); GM-CSF was assayed using human GM-CSF immunoassay (R&D systems); and IL-8 was assayed using human IL-8 immunoassay (R&D systems). The determination method followed the method of each kit. The results are expressed in IC50.

A further experiment concerns TNF-α. The experiment in a line: Inhibitory activity on TNF-α production from LPS-stimulated human PBMC (ELISA). Format: cell-based. The following applies: Homo sapiens, PBMC, 24 h. As for the experimental part: as §1, §2, §3
The mark [3] stands for this setting: read-out: IL-6 IC50 (µM), human PBMC, LPS 10 µg/ml, incubation 24 hours, supernatant ELISA.
Where [4] appears, read: read-out: TNF-α IC50 (µM), human PBMC, LPS 10 µg/ml, incubation 24 hours, supernatant ELISA.
Where [5] appears, read: human PBMC, LPS 10 µg/ml, incubation 24 hours, supernatant ELISA, read-out: IL-6 IC50.
Setting [6] is: human PBMC, LPS 10 µg/ml, incubation 24 hours, supernatant ELISA, read-out: TNF-α IC50.

SMILES strings stand for the structures. Where two headings read alike, the source gives them in different places.

As for `Cc1ccc(CN2N=C(c3ccc(Cl)cc3)c3ccccc3-n3c(C)nnc32)cc1` [Synthetic Example 54, 6-(4-Chlorophenyl)-1-methyl-4-(4-methylbenzyl)-4H-2,3,4,5,10b-pentaazabenz[e]azulene], the inhibition in vivo at 10 mg/kg with IL-6 [1] worked out at 56%.

With `Cc1ccc2c(c1)-n1c(C)nnc1N(Cc1ccc(C#N)cc1)N=C2c1ccc(Cl)cc1` [Synthetic Example 108, 6-(4-Chlorophenyl)-4-(4-cyanbenzyl)-1,9-dimethyl-4H-2,3,4,5,10b-pentaazabenz[e]azulene], in the experiment with IL-6 [1], the “Inhibtion (%) of plasma IL-6 production (10 mg/kg, p.o.)” value is reported as 70%.

For `Cc1nnc2n1-c1ccc([N+](=O)[O-])cc1C(c1ccccc1)=NN2Cc1ccncc1` [compound 102], the IC50 in the experiment on IL-6 [2] (setting [3]) is 1.15 µM; in the experiment on TNF-α (setting [4]), 0.05 µM.

On to `Cc1ccc(C2=NN(Cc3ccncc3)c3nnc(C)n3-c3ccccc32)cc1` [Synthetic Example 103, 1-Methyl-6-(4-methylphenyl)-4-(pyridin-4-ylmethyl)-4H-2,3,4,5,10b-pentaazabenz[e]azulene], for which, in the experiment on IL-6 [1], the inhibition in vivo at 10 mg/kg stood at 75%.

Regarding `Cc1ccc2c(c1)-n1c(C)nnc1N(Cc1ccc(C#N)cc1)N=C2c1ccc(Cl)cc1` [compound 108], the IC50 in the experiment on IL-6 [2] (setting [3]) and in the experiment on TNF-α (setting [4]) was less than 0.01 µM each time.

Take `Cc1nnc2n1-c1ccccc1C(c1ccc(Cl)cc1)=NC2CC(=O)Nc1ccccc1` (stereo not drawn) [compound 195]: the IC50 in the experiment on IL-6 [2] (setting [3]) was 3.4 µM; in the experiment on TNF-α (setting [4]), 0.6 µM.

On to `Cc1nnc2n1-c1ccccc1C(c1ccc(NC(=O)OC(C)(C)C)cc1)=NN2Cc1ccc(C#N)cc1` [Example 13, tert-Butyl 4-[4-(4-cyanobenzyl)-1-methyl-4H-2,3,4,5,10b-pentaazabenz[e]azulen-6-yl]phenylcarbamate], for which the IC50 with IL-6 [2] (setting [5]) was 0.02 µM; in the experiment with TNF-α (setting [6]), less than 0.01 µM.

On to `Cc1nnc2n1-c1ccccc1C(c1ccc(Br)cc1)=NN2Cc1ccc(Br)cc1` [compound 109], for which the figures for the IC50 in the experiment with IL-6 [2] (setting [3]) and in the experiment with TNF-α (setting [4]) were less than 0.01 µM and 0.07 µM, respectively.

Consider `Cc1nnc2n1-c1ccccc1C(c1ccc(Cl)cc1)=NN2Cc1ccncc1` [Synthetic Example 86, 6-(4-Chlorophenyl)-1-methyl-4-(pyridin-4-ylmethyl)-4H-2,3,4,5,10b-pentaazabenz[e]azulene], for which the inhibition in vivo at 10 mg/kg in the experiment on IL-6 [1] stood at 89%.

Consider `Cc1sc2c(c1C)C(c1ccccc1)=NN(Cc1ccncc1)c1nnc(C)n1-2` [Synthetic Example 125, 2,3,9-Trimethyl-4-phenyl-6-(pyridin-4-ylmethyl)-6H-5,6,7,8,9a-pentaazathieno[2,3-e]azulene], for which the inhibition in vivo at 10 mg/kg with IL-6 [1] was determined as 84%.

As for `COc1ccc(C2=NN(Cc3ccncc3)c3nnc(C)n3-c3sc(C)c(C)c32)cc1` [compound 129], the values for the IC50 in the experiment on IL-6 [2] (setting [3]) and in the experiment on TNF-α (setting [4]) were 0.06 µM and 0.014 µM, respectively.

`Cc1ccc(CN2N=C(c3ccc(Cl)cc3)c3ccccc3-n3c(C)nnc32)cc1` [compound 54]: the values for the IC50 in the experiment on IL-6 [2] (setting [3]) and in the experiment with TNF-α (setting [4]) were 0.01 µM and 0.02 µM, respectively.

`Cc1sc2c(c1C)C(c1ccc(Cl)cc1)=NN(Cc1ccc(C#N)cc1)c1nnc(C)n1-2` [compound 115]: the IC50 in the experiment with IL-6 [2] (setting [3]) came out at 0.06 µM; in the experiment on TNF-α (setting [4]), 0.01 µM.

Turning to `Cc1cc2c(s1)-n1c(C)nnc1N(Cc1ccncc1)N=C2c1ccccc1` [compound 121], the IC50 with IL-6 [2] (setting [3]) is 0.04 µM; in the experiment with TNF-α (setting [4]), less than 0.01 µM.

In the case of `COc1ccc(CN2N=C(c3ccc(OC)cc3)c3c(sc(C)c3C)-n3c(C)nnc32)cc1` [compound 18], the IC50 in the experiment with IL-6 [2] (setting [3]) is 0.008 µM; in the experiment on TNF-α (setting [4]), less than 0.01 µM.

In the case of `CCc1cc2c(s1)-n1c(C)nnc1N(Cc1ccncc1)N=C2c1ccccc1` [compound 127], the figures for the IC50 with IL-6 [2] (setting [3]) and with TNF-α (setting [4]) were 0.08 µM and less than 0.01 µM, respectively.

With `Cc1sc2c(c1C)C(c1ccccc1Cl)=NN(Cc1ccncc1)c1nnc(C)n1-2` [compound 20], the IC50 came out at 0.8 µM in the experiment on IL-6 [2] (setting [3]) and 0.06 µM in the experiment with TNF-α (setting [4]).

As to `COc1ccc(OC)c(N2C(=O)NC3(N=C(c4ccc(Cl)cc4)c4ccccc4-n4c(C)nnc43)C2=O)c1` (stereo not drawn) [compound 196], the IC50 in the experiment on IL-6 [2] (setting [3]) was 2.5 µM; in the experiment with TNF-α (setting [4]), 0.09 µM.

On to `CCc1cc2c(s1)-n1c(C)nnc1N(Cc1ccc(C#N)cc1)N=C2c1ccc(Cl)cc1` [compound 119], for which the IC50 with IL-6 [2] (setting [3]) and with TNF-α (setting [4]) was less than 0.01 µM each time.

Consider `Cc1nnc2n1-c1ccccc1C(c1ccccc1)=NN2Cc1ccncc1` [compound 95], for which the IC50 was found to be 0.34 µM in the experiment on IL-6 [2] (setting [3]) and 0.03 µM in the experiment with TNF-α (setting [4]).

As to `COC(=O)c1ccc(C2=NN(Cc3ccc(C#N)cc3)c3nnc(C)n3-c3ccccc32)cc1` [Example 7, Methyl 4-[4-(4-cyanobenzyl)-1-methyl-4H-2,3,4,5,10b-pentaazabenz[e]azulen-6-yl]benzoate], the IC50 was 0.23 µM in the experiment with IL-6 [2] (setting [5]) and 0.5 µM in the experiment with TNF-α (setting [6]).

Regarding `Cc1sc2c(c1C)C(c1ccccc1)=NN(Cc1ccncc1)c1nnc(C)n1-2` [compound 125], the IC50 was 0.02 µM in the experiment on IL-6 [2] (setting [3]) and less than 0.01 µM in the experiment on TNF-α (setting [4]).

Consider `Cc1sc2c(c1C)C(c1ccc(Cl)cc1)=NN(Cc1ccncc1)c1nnc(C)n1-2` [compound 114], for which the IC50 was 0.01 µM in the experiment with IL-6 [2] (setting [3]) and less than 0.01 µM in the experiment with TNF-α (setting [4]).

As to `Cc1nnc2n1-c1ccccc1C(c1ccc(Cl)cc1)=NN2Cc1ccc(C#N)cc1` [compound 39], the IC50 in the experiment with IL-6 [2] (setting [3]) and in the experiment with TNF-α (setting [4]) was less than 0.01 µM each time.

`COc1ccc(OC)c(NC(=O)NC2N=C(c3ccc(Cl)cc3)c3ccccc3-n3c(C)nnc32)c1` (stereo not drawn) [compound 204]: the IC50 in the experiment on IL-6 [2] (setting [3]) is more than 10 µM; in the experiment with TNF-α (setting [4]), 0.4 µM.

Turning to `Cc1nnc2n1-c1ccccc1C(c1ccc(Cl)cc1)=NC21NC(=O)N(c2ccccc2)C1=O` (stereo not drawn) [compound 197], the IC50 is more than 10 µM in the experiment on IL-6 [2] (setting [3]) and 0.3 µM with TNF-α (setting [4]).

Turning to `Cc1nnc2n1-c1ccccc1C(c1ccc(NC(=O)OC(C)(C)C)cc1)=NN2Cc1ccc([N+](=O)[O-])cc1` [Example 14, tert-Butyl 4-[1 methyl-4-(4-nitrobenzyl)-4H-2,3,4,5,10b-pentaazabenz[e]azulen-6-yl]phenylcarbamate], the values for the IC50 in the experiment with IL-6 [2] (setting [5]) and in the experiment with TNF-α (setting [6]) were 0.02 µM and less than 0.01 µM, respectively.

`Cc1ccc2c(c1)-n1c(C)nnc1N(Cc1ccncc1)N=C2c1ccccc1` [compound 97]: the IC50 came out at 0.22 µM in the experiment with IL-6 [2] (setting [3]) and 0.007 µM in the experiment with TNF-α (setting [4]).

Consider `Cc1nnc2n1-c1ccccc1C(c1ccc(Cl)cc1)=NN2Cc1ccncc1` [compound 86], for which the results for the IC50 in the experiment on IL-6 [2] (setting [3]) and in the experiment with TNF-α (setting [4]) were 0.08 µM and 0.01 µM, respectively.

Take `Cc1nnc2n1-c1ccccc1C(c1ccc(Cl)cc1)=NC2NC(=O)c1cc2ccccc2[nH]1` (stereo not drawn) [compound 205]: the IC50 with IL-6 [2] (setting [3]) came out at 3.9 µM; in the experiment on TNF-α (setting [4]) it was 0.01 µM.

On to `Cc1cc2c(s1)-n1c(C)nnc1N(Cc1ccc(C#N)cc1)N=C2c1ccccc1` [compound 122], for which the IC50 in the experiment with IL-6 [2] (setting [3]) and in the experiment on TNF-α (setting [4]) was less than 0.01 µM each time.

Turning to `Cc1ccc(C2=NN(Cc3ccncc3)c3nnc(C)n3-c3ccccc32)cc1` [compound 103], the IC50 in the experiment on IL-6 [2] (setting [3]) was 0.11 µM; with TNF-α (setting [4]), 0.001 µM.

`CCOC(=O)C1(NC(=O)Nc2cc(OC)ccc2OC)N=C(c2ccc(Cl)cc2)c2ccccc2-n2c(C)nnc21` (stereo not drawn) [compound 199]: the IC50 in the experiment on IL-6 [2] (setting [3]) was found to be 1.6 µM; in the experiment with TNF-α (setting [4]), 0.01 µM.

Turning to `Cc1sc2c(c1C)C(c1ccc(Cl)cc1)=NN(Cc1cc[n+]([O-])cc1)c1nnc(C)n1-2` [Example 3, 4-[4-(4-Chlorophenyl)-2,3,9-trimethyl-6H-1-thia-5,6,7,8,9a-pentaazacyclopent[e]azulen-6-ylmethyl]-pyridine-1-oxide], the IC50 was determined as 0.2 µM with IL-6 [2] (setting [5]) and 0.05 µM in the experiment with TNF-α (setting [6]).

Regarding `Cc1cc2c(s1)-n1c(C)nnc1N(Cc1ccc(-c3nnn(C)n3)cc1)N=C2c1ccccc1` [Example 17, 2,9-dimethyl-4-phenyl-6-[4-(2-methyl-2H-tetrazol-5-yl)benzyl]-6H-5,6,7,8,9a-pentaazathieno[2,3-e]azulene], the IC50 in the experiment with TNF-α (setting [6]) was 0.12 µM.

For the molecule `Cc1nnc2n1-c1ccccc1C(c1ccccc1)=NN2Cc1ccc(C#N)cc1` [compound 111], the IC50 was found to be 0.4 µM in the experiment with IL-6 [2] (setting [3]) and 0.07 µM in the experiment on TNF-α (setting [4]).

Consider `CCc1cc2c(s1)-n1c(C)nnc1N(Cc1cc[n+]([O-])cc1)N=C2c1ccc(Cl)cc1` [Example 4, 4-[4-(4-Chlorophenyl)-2-ethyl-9-methyl-6H-1-thia-5,6,7,8,9a-pentaazacyclopent[e]azulen-6-ylmethyl]-pyridine-1-oxide], for which, in the experiment with IL-6 [2] (setting [5]), the IC50 was 2 µM.

As to `Cc1nnc2n1-c1ccccc1C(c1ccc(Cl)cc1)=NC2NC(=O)NC1CCCCC1` (stereo not drawn) [compound 203], the values for the IC50 in the experiment on IL-6 [2] (setting [3]) and with TNF-α (setting [4]) were 5.7 µM and 0.2 µM, respectively.
